Consider 23 molecules from patent US6440723B1, “Arrays with modified oligonucleotide and polynucleotide compositions” (Oligos Etc. Inc., priority 1998, dated 2002).

Data set [1] concerns 2′-OMe RNA oligo 150-mer (SEQ ID NO:3). As to the kind of experiment: Fluorescence signal of 12-mer probes bound to captured 150-mer on streptavidin plate. The class given is binding. The note with it: individual probes, fluorescence (Oregon Green 488). The source says:
A 2′-OMe RNA oligo 150-mer (SEQ ID NO:3) was captured using a 15-mer 2′-OMe oligo tethered through biotin-streptavidin onto a white 96-well plate. Observations were taken of individual 2′-OMe 12-mers complementary to portions of the 150-mer labeled on the 5′-end with Oregon Green 488. Once the signal levels were obtained for single sequences, various combinations of the 12-mers were used to determine whether the fluorescence signal from the probes was additive. The sequences of these probes were chosen at 12-base steps through the sequence of the 150-mer.

Data set [2] deals with polyclonal antibodies to cAMP. The note with it: cited from earlier work.
Data set [3] has as its system Regular RNA 20-mer oligonucleotide SEQ ID NO:1. Put plainly: Duplex melting temperature (Tm), SEQ ID NO:1 strand as Regular RNA. The class given is binding. The note with it: SEQ ID NO:1 strand Regular RNA; four μM each strand, 50 mM NaCl, 10 mM PO4 buffer, pH 7.4. Here is the method: (§1) The stability of duplexes having 2′-substituted nucleotides versus duplexes without such modification was tested by examining the Tm of these complexes. four μM each of 20-mer oligonucleotide (5′-ggt ggt tcc tcc tca gtc gg-3′; SEQ ID NO:1) and its complement (5′-ccg act gag aag gaa cca cc-3′; SEQ ID NO:2) were bound in a solution of 50 mM NaCl, 10 mM PO4 buffer, pH 7.4. Each of the nucleotides of the oligonucleotide had the same 2′ group. Following binding, the melting temperature was determined as described (See L. L. Cummins et al., Nucleic Acids Research 23:2019-2024 (1995)).

Data set [4] relates to Regular DNA 20-mer oligonucleotide SEQ ID NO:1. As to the kind of experiment: Duplex melting temperature (Tm), SEQ ID NO:1 strand as Regular DNA. The note with it: SEQ ID NO:1 strand Regular DNA; four μM each strand, 50 mM NaCl, 10 mM PO4 buffer, pH 7.4. The format is binding. Here is the method:
as §1

Data set [5] concerns folate binding proteins. The note with it: cited from earlier work.
Data set [6] has as its target Avidin (Gallus gallus, UniProt P02701). The note with it: cited from earlier work.

Avidin, sequence (P02701 25-152): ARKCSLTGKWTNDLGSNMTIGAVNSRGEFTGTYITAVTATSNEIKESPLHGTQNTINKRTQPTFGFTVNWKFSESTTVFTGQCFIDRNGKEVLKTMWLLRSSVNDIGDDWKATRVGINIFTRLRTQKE

In the case of 5′-AUAGGGAAUCCU-butanol-3′ [Probe (6)], in data set [1], the Signal came to 810.
Consider `Nc1ncnc2c1ncn2[C@@H]1O[C@@H]2COP(=O)(O)O[C@H]2[C@H]1O` [cAMP, cyclic AMP], for which, in data set [2], the “Ka of polyclonal antibodies to cAMP” value is recorded as 10^10 to 10^12 M^−1.
As to 5′-GUGCGGGUGAUG-butanol-3′ [Probe (4)], in data set [1], the Signal amounted to 115.
Turning to “p-ethoxy 2′-O-methyl: 20-mer SEQ ID NO:2 (5′-ccg act gag aag gaa cca cc-3′) as p-ethoxy 2′-O-methyl”, in data set [3], the Tm came to 71 °C.
Take 5′-GCCGUACUGUAG-butanol-3′ [Probe (3)]: the Signal in data set [1] turned out to be 256.
For 5′-UGUUCACCAUGC-butanol-3′ [Probe (1)], the Signal in data set [1] (listed as (1)) is reported as 124.
Take 5′-GGGGCCGUACUG-butanol-3′ [Probe (10)]: the Signal in data set [1] came to 46.
For “p-ethoxy DNA: 20-mer SEQ ID NO:2 (5′-ccg act gag aag gaa cca cc-3′) as p-ethoxy DNA”, the Tm in data set [4] was 55 °C.
For 5′-CGAGUCCUGCAC-butanol-3′ [Probe (5)], the Signal in data set [1] was 85.
As to tetrahydrofolate, the Ka in data set [5] was 3e+11 M⁻¹.
On to `COC(=O)CCCCC1SCC2C1NC(=O)N2C(=O)OC` (centres unmarked) [1′-N-methoxy-carbonylbiotin methyl ester], for which the “Binding affinity with Avidin” value in data set [6] is 10^7 M^−1.
For `C[C@@H]1NC(=O)N[C@@H]1CCCCCC(=O)O` [Dethiobiotin], in data set [6], the “Binding affinity with Avidin” value was 10^13 M^−1.
Consider 5′-UGCAGUACAUGU-butanol-3′ [Probe (7)], for which, in data set [1], the Signal amounted to 466.
Regarding 5′-CCACCUCACGAA-butanol-3′ [Probe (2)], in data set [1] (listed as (2)), the Signal was 297.
With `O=C(O)CCCC[C@@H]1SC[C@@H]2NC(=O)N[C@@H]21` [Biotin], the “Binding affinity with Avidin” value in data set [6] is reported as 10^15 M^−1.
As to `COC(=O)CCCCC1SCC2NC(=O)N(C(=O)OC)C21` (centres unmarked) [3′-N-methoxy-carbonylbiotin methyl ester], the “Binding affinity with Avidin” value in data set [6] is recorded as 10^9 M^−1.
For `N=C1N[C@H]2[C@H](CS[C@H]2CCCCC(=O)O)N1` [Iminobiotin], the “Binding affinity with Avidin” value in data set [6] is on record as 10^11 M^−1.
Regarding “2′-O-methyl: 20-mer SEQ ID NO:2 (5′-ccg act gag aag gaa cca cc-3′), each nucleotide 2′-O-methyl”, in data set [3], the Tm is 79 °C.
As to 5′-UGUUCACCAUGC-butanol-3′ [Probe (8)], in data set [1] (listed as (8)), the Signal was determined as 133.
As for 5′-CCACCUCACGAA-butanol-3′ [Probe (9)], in data set [1] (listed as (9)), the Signal was 514.
`O=C(O)CCCCC1SCC2NC(=S)NC21` (centres unmarked) [2-thiobiotin]: in data set [6], the “Binding affinity with Avidin” value is on record as 10^13 M^−1.
Regarding “p-ethoxy RNA: 20-mer SEQ ID NO:2 (5′-ccg act gag aag gaa cca cc-3′) as p-ethoxy RNA”, the Tm in data set [3] was 56 °C.
As for “Regular DNA: 20-mer SEQ ID NO:2 (5′-ccg act gag aag gaa cca cc-3′) as regular DNA [reference compound]”, the Tm in data set [3] worked out at 66 °C.
